Reference: patent US5182289A, “Heterobicyclic compounds having antiinflammatory activity” (Schering Corporation, priority 1990, dated 1993)
Read-outs that look alike come from different tables or passages of the source.

Legend:
5-LO = assay: Reversed Passive Arthus Reaction (RPAR) in the pleural cavity: LTE-4 in exudate; type: in vivo, male rats
Procedure: (§1) Reversed Passive Arthus Reaction (RPAR) Assay
(§2) Groups of 4 male rats were injected in the penile vein with antigen (1 mg BSA in 0.2 mL of saline per rat) and 0.5 hour later injected in the pleural cavity with antibody (1.0 mg antibody protein in the IgG fraction of rabbit anti-BSA in 0.2 mL). […] After 4 hours the animals were killed with CO2, and the pleural cavities were opened and the exudate drained into a graduated conical glass centrifuge tube containing indomethacin (1.8 ug) and nordihydroguaiaretic acid (NDGA) (15 ug) to block ex vivo metabolite synthesis. The volume of the exudate was measured. The cavity was then washed out with saline-EDTA to achieve a final volume of 5.0 mL. The number of cells were determined in a Colulter Counter. The cells were spun-down (1000×g) and the exudate supernatant was added to 4 volumes of 95% ethanol and samples were kept on ice for 30 minutes. After removal of the protein precipitate (2,500×g) the ethanol extract of the exudate was dried under N2 and then stored at -20° C. For radioimmunoassay (RIA) analysis the samples were redissolved in water to a volume of 1 mL per rat. Utilizing internally spiked samples, recovery of TXB2 (tritiated thromboxane B2) and LTE4 (tritiated leukotriene-E4) from exudates was determined to be 84±2% (SEM) and 89±2% (N=4), respectively. Exudate samples were directly assayed in duplicate with the commercial ^3 H-TXB2 RIA kit from New England Nuclear and the ^3 H-LTC4 /D4 /E4 kit from Amersham. The assay was validated using reversed-phase HPLC analysis of LTs in the standard procedure described by M. W. Musch, R. W. Bryant, C. Coscollaela, R. F. Myers and M. I. Siegel, Prostaglandins, Vol. 29, pp 405-430 (1985). Samples of ethanol exudate extract were "spiked" with ^3 H-LTs to follow HPLC purification and recovery.

[1] = system: Reversed Passive Arthus Reaction (RPAR) in the pleural cavity; assay: Reversed Passive Arthus Reaction (RPAR) in the pleural cavity: cells and fluid; type: in vivo, male rats; settings: Rattus norvegicus, 4 h; for inhibition in vivo at 40 mg/kg: dose 40 mpk; for inhibition in vivo at 25 mg/kg: dose 25 mpk; for inhibition in vivo at 20 mg/kg: dose 20 mpk
Procedure: as §1, §2

CO (cyclooxygenase) = assay: Reversed Passive Arthus Reaction (RPAR) in the pleural cavity: TXB-2 in exudate; type: in vivo, male rats
Procedure: as §1, §2

cyclooxygenase = target: T1, cyclooxygenase (Homo sapiens, UniProt P23219); assay: Cyclooxygenase Assay with Human Platelets, HHT production; type: cell-based; settings: concentration not given
T1 construct: Cyclooxygenase Assay with Human Platelets; endogenous in cells; host or cells: human blood platelets from healthy volunteers
Procedure: Cyclooxygenase Assay with Human Platelets
Blood is collected in acid-citrate-dextrose anticoagulant by venipuncture from normal healthy volunteers who said that they were not on any medication for the previous two weeks. Platelets are isolated by the procedure of Okuma and Uchino (Blood 54:1258-1271 (1979)). In brief, blood is centrifuged at 4° C. at 200×g for 10 minutes to sediment red and white cells. The platelet rich plasma (PRP) supernatant is removed and mixed with one-tenth volume of 77 mM EDTA, pH 7.2 and prostacyclin sodium salt is added to the PRP at a final concentration of 1 nanogram per milliliter(ng/mL). The PRP is centrifuged at 1700×g, 4° C. for 15 minutes. The platelet pellet is resuspended in the HEPES buffer described in the 5-lipoxygenase section above which additionally contained 1 ng/mL prostacyclin and 0.5 mM ethylene glycolbis(B-aminoethyl ether) N,N,N',N'-tetraacetic acid (EGTA) and the suspension is recentrifuged at 1,700×g, 4° C. for 15 minutes. The pellet is resuspended in HEPES buffer containing 0.5 mM EGTA and 1.5 mM CaCl2 at a cell count of 200,000 cells/ul. Platelets (0.2 ml of suspension) are preincubated with test compounds and the ^14 C-arachidonic acid plus the calcium ionophore A23187 stimulant exactly as described for the 5-lipoxygenase assay. The cyclooxygenase product 12-hydroxyheptadecatrienoic acid (HHT) is isolated and quantitated by the HPLC system used for the 5-lipoxygenaseassay. HHT elutes from this system at about eleven minutes. Results are expressed as percent inhibition of HHT production by the test compounds versus the test vehicle alone.

5-lipoxygenase = target: T2, 5-lipoxygenase (Homo sapiens, UniProt P09917); assay: 5-Lipoxygenase Assay in human polymorphonuclear (PMN) leukocytes, 5-HETE production; type: cell-based; settings: concentration not given
T2 construct: Human polymorphonuclear (PMN) leukocytes (neutrophils) are obtained from normal healthy volunteers; endogenous in cells; host or cells: human polymorphonuclear leukocytes (neutrophils) from blood of healthy volunteers
T2 sequence (P09917 1-674): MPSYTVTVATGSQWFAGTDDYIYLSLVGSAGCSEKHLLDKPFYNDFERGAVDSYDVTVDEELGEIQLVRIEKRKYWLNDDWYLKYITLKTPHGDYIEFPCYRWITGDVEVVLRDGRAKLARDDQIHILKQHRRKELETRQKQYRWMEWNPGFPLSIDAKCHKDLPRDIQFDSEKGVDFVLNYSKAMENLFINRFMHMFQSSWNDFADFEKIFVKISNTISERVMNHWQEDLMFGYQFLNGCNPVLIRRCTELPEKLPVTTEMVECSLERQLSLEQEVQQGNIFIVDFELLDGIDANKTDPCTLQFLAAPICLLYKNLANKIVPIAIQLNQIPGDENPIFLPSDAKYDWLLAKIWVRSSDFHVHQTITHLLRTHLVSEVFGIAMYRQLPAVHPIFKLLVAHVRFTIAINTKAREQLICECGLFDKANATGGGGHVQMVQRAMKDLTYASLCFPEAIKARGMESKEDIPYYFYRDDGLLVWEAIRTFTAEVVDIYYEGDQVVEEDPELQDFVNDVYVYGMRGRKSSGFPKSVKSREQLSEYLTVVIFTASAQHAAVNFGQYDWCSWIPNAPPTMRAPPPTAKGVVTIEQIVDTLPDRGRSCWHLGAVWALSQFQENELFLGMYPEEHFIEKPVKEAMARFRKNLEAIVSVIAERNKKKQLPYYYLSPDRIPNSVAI
Procedure: Human polymorphonuclear (PMN) leukocytes (neutrophils) are obtained from normal healthy volunteers by venipuncture and collected with heparin anticoagulant. Neutrophils are isolated by Dextran/Ficol sedimentation as described (Billah et al, J. Biol. Chem. 260, 6899-6906 (1985)). In brief, 30 ml of blood is mixed with 5 ml of dextran (Sigma) solution and kept at 37° C. for 30 min. The upper white cellrich layer is removed and 10 ml is layered on 9 ml of Ficol-Paque solution (Pharmacia) and centrifuged at 280×g for 10 min. at 5° C. The supernatant is removed and the neutrophil pellet is resuspended in HEPES buffer containing 25 mM N-2-hydroxyethylpiperazine-N^1 -2 ethanesulfonic acid(HEPES), 125 mM NaCl, 2.5 mM KCL, 0.7 mM MgCl2, 0.5 mM and 10 mM glucose at pH 7.4. The red cells in the suspension are lysed by hypotonic shock. The neutrophils are washed by centrifugation in HEPES buffer two times and finally resuspended at a concentration of 20×10^6 cells/ml in the presence of 1 mM CaCl2.
Neutrophils (0.2 ml of suspension) are preincubated with dimethylsulfoxide (DMSO) vehicle with or without test compound (1 ul) for 4 minutes then incubated for 5 minutes with ^14 C-arachidonic acid (Amersham, 59 Ci/mole) at a 9 uM final concentration, and the calcium ionophore A23187 (Calbiochem) at a 1 uM final concentration. These stimulants are added in 10 ul of water:ethanol (9:1). The reaction is stopped by addition of methanol (0.4 ml), and cellular debris is removed by centrifugation. Aliquots (100 ul) of the incubations are run on a Waters two pump high performance liquid chromatography (HPLC) system fitted with a DuPont Zorbax ODS, 5 u, 4×80 […] Reliance Cartridge column and C18 "Guard Pak". The column is initially eluted at 2 ml/min with 80 percent of the mixture water:methanol:acetic acid (46:54:0.08) containing 1 mM EDTA adjusted to pH 6.0 with ammonium hydroxide (Pump A) and 20% methanol (Pump B). At 10 minutes, a linear gradient is established. to reach 100 percent methanol (Pump B) at 27 minutes. Between 27 and 28 minutes, methanol is exchanged for the initial eluting solvent and by 35 minutes the column is reequilibrated for the next sample. The effluent is analyzed by a continuous flow radioactivity monitor (model ROMONA-D) interfaced with a Hewlett Packard Lab Automation System for quantitation of radioactive products. This includes the major 5-lipoxygenase product, 5-hydroxyeicosatetraenoic acid (5-HETE) which elutes at 20 minutes. The results with and without test compound are used to calculate percent inhibition of 5-HETE production.

[2] = read-out: RPAR-Pleural Cavity % Inhibition cells
[3] = read-out: RPAR-Pleural Cavity % Inhibition fluid

T1 sequence (P23219 24-599): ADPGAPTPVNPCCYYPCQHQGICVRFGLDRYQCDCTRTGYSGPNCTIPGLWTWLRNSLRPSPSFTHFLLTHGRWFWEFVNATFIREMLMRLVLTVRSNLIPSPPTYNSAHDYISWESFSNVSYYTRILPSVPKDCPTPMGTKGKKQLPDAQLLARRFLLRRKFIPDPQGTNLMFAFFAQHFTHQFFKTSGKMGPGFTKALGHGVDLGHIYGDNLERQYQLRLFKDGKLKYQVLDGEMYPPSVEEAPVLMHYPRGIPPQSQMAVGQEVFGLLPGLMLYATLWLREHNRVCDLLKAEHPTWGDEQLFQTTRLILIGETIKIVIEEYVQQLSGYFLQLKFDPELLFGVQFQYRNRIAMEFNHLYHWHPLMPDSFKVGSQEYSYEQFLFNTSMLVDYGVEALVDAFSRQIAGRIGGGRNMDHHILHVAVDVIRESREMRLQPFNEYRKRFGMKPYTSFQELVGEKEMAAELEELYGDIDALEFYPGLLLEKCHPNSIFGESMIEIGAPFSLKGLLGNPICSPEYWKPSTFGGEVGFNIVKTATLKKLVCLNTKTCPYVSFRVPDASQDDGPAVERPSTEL

CC1(C)C(=O)N(c2ccccc2)c2ncccc21 [Compound 1, 1,3-dihydro-3,3-dimethyl-1-phenyl-2H-pyrrolo[2,3-b]pyridin-2-one]
RPAR-Pleural Cavity % Inhibition LTE-4 (5-LO; dose 40 mpk): 54% | inhibition in vivo at 40 mg/kg [1, 2]: 70% | inhibition in vivo at 40 mg/kg [1, 3]: 60% | RPAR-Pleural Cavity % Inhibition TXB-2 (CO (cyclooxygenase); dose 40 mpk): 54%

CC1(C)C(=O)N(c2ccc(Cl)cc2)c2ncccc21 [Compound 2, 1-(4-chlorophenyl)-1,3-dihydro-3,3-dimethyl-2H-pyrrolo[2,3-b]pyridin-2-one]
RPAR-Pleural Cavity % Inhibition LTE-4 (5-LO; dose 25 mpk): 87% | inhibition in vivo at 25 mg/kg [1, 2]: 73% | inhibition in vivo at 25 mg/kg [1, 3]: 83% | RPAR-Pleural Cavity % Inhibition TXB-2 (CO (cyclooxygenase); dose 25 mpk): 78%

CN1C(=O)C(C)(C)c2cccnc21 [Compound 3, 1,3-dihydro-1,3,3-trimethyl-2H-pyrrolo[2,3-b]pyridin-2-one]
RPAR-Pleural Cavity % Inhibition LTE-4 (5-LO; dose 25 mpk): 62% | inhibition in vivo at 25 mg/kg [1, 2]: 69% | inhibition in vivo at 25 mg/kg [1, 3]: 53% | RPAR-Pleural Cavity % Inhibition TXB-2 (CO (cyclooxygenase); dose 25 mpk): 17%

CC1(C)C(=O)N(c2cccc(Cl)c2)c2ncccc21 [Compound 5, 1-(3-chlorophenyl)-1,3-dihydro-3,3-dimethyl-2H-pyrrolo[2,3-b]pyridin-2-one]
RPAR-Pleural Cavity % Inhibition LTE-4 (5-LO; dose 25 mpk): 59% | inhibition in vivo at 25 mg/kg [1, 2]: 51% | inhibition in vivo at 25 mg/kg [1, 3]: 49% | RPAR-Pleural Cavity % Inhibition TXB-2 (CO (cyclooxygenase); dose 25 mpk): 62%

CC1(C)C(=O)N(c2ccc(Cl)c(Cl)c2)c2ncccc21 [Compound 6, 1-(3,4-dichlorophenyl)-1,3-dihydro-3,3-dimethyl-2H-pyrrolo[2,3-b]pyridin-2-one]
RPAR-Pleural Cavity % Inhibition LTE-4 (5-LO; dose 25 mpk): 46% | inhibition in vivo at 25 mg/kg [1, 2]: 26% | inhibition in vivo at 25 mg/kg [1, 3]: 25% | RPAR-Pleural Cavity % Inhibition TXB-2 (CO (cyclooxygenase); dose 25 mpk): 44%

COc1ccc(N2C(=O)C(C)(C)c3cccnc32)cc1 [Compound 8, 1,3-dihydro-3,3-dimethyl-1-(4-methoxyphenyl)-2H-pyrrolo[2,3-b]pyridin-2-one]
RPAR-Pleural Cavity % Inhibition LTE-4 (5-LO; dose 25 mpk): 0% | inhibition in vivo at 25 mg/kg [1, 2]: 63% | inhibition in vivo at 25 mg/kg [1, 3]: 42% | RPAR-Pleural Cavity % Inhibition TXB-2 (CO (cyclooxygenase); dose 25 mpk): 34%

CC1(C)C(=O)N(c2ccc(F)cc2)c2ncccc21 [Compound 9, 1,3-dihydro-3,3-dimethyl-1-(4-fluorophenyl)-2H-pyrrolo[2,3-b]pyridin-2-one]
RPAR-Pleural Cavity % Inhibition LTE-4 (5-LO; dose 20 mpk): 36% | inhibition in vivo at 20 mg/kg [1, 2]: 70% | inhibition in vivo at 20 mg/kg [1, 3]: 43% | RPAR-Pleural Cavity % Inhibition TXB-2 (CO (cyclooxygenase); dose 20 mpk): 53%

COc1c(Sc2ccccc2)c2cccnc2n1-c1ccccc1 [Compound 35, 2-methoxy-1-phenyl-3-(phenylthio)-1H-pyrrolo[2,3-b]pyridine]
% inhibition of HHT production in human platelets (cyclooxygenase): 55% | inhibition of 5-HETE in the PMN assay (5-lipoxygenase): 80%
